Consider one molecule from EP0569598A1, “BENZOXAZINONE DERIVATIVE” (JAPAN TOBACCO INC., priority 1991, dated 1993).

Test [1] concerns the target T1, human leukocyte elastase (HLE) (Homo sapiens, UniProt P08246).
T1 construct: the mixed solution was subjected to density gradient centrifugation, thereby obtaining neutrophiles; from tissue; host or cells: neutrophils from human vein blood (buffy coat)
T1 sequence (P08246 30-247 limits assumed): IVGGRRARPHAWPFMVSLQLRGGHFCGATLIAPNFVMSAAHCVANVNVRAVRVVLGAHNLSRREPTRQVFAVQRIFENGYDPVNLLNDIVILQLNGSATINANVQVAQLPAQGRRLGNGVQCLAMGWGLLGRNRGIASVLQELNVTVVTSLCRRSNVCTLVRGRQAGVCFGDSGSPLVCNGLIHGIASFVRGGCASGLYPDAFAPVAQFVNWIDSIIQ
Put plainly: HLE inhibitory activity (synthetic substrate, pNA release, absorbance 405 nm). Conditions: pH 8.6; HLE 5.63 nM, substrate 0.2625 mM; 37°C; read-out: IC₅₀ value HLE. Format: biochemical. The protocol:
(§1) Activities of the Benzoxazine derivatives of the present invention against human leukocyte elastase (HLE), human sputum elastase (HSE), human cathepsin G (HCG), bovine pancreatic α-chmotrypsin (CYT) and bovine pancreatic trypsin (TRY) were measured by the following method.
A buffy coat was obtained by subjecting human vein blood to centrifugation. To the buffy coat was added distilled water to make a hypotonic solution, thereby bursting erythrocytes. To the residual blood cell component was added a 33.4% of Conrey 400 solution/9% Ficoll solution (the ratio of the former solution to the latter solution is 10:24), and the mixed solution was subjected to density gradient centrifugation, thereby obtaining neutrophiles. The neutrophile fraction was washed with Hanks' buffer for three times and then cells were recovered and cryopreserved at -80°C until use. The cryopreserved-cells were thawed with warm water at 37°C and suspended in a 9-fold volume of lysis buffer containing 0.1M Tris-HCl (pH7.5), 1M MgCl₂ and 0.1% Brij 35. The suspended cells are destroyed by means of polotoron with ice-cooling. The cell suspension was subjected to centrifugation at 100,000 x g for 1 hour. After removing precipitates, 2-fold volume of a Tris-HCl buffer containing 5 mM Tris-HCl(pH 7.5), 1M NaCl and 1.1% Brij 35 was added to the supernatant, thereby obtaining a crude solution of an enzyme extract. The crude solution was subjected to aprotinine affinity column and extracted with an elution buffer containing […] of glycine-HCl (pH 3.3), 1M NaCl and 0.1% Brij 35, thereby obtaining an active fraction. The obtained active fraction was further subjected to MONO S-ion-exchange chromatography and eluted with 2M NaCl linear gradient. The obtained fraction was dialyzed against 25 mM Tris-HCl (pH8.6) and lyophilized, thereby obtained an enzyme sample.
(§2) A test compound was dissolved in DMSO (for fluorometry) and prepared various concentration of the solution. To each concentration was added 2-fold volume of 0.2M Tris-HCl (pH8.6), thereby obtaining a test solution. Synthetic substrate (Funakoshi, L-1335) was dissolved in DMSO and 2-volume of 0.2M Tris-HCl (pH8.6) was added thereto, thereby obtaining a substrate solution. The reaction was performed using a microplate having 96 wells (Nunk). Six-time reactions were repeated for each concentration. One handred and forty µl of an enzyme solution containing 0.2M Tris-HCl (pH8.6), 30 µl of a test solution and 30 µl of a substrate solution per well of the microplate were respectively pre-incubated at 37°C for 10 minutes. After completion of the incubation, the enzyme solution was mixed with the test sample and incubated for 10 minutes and then the substrate solution was added to perform an enzyme reaction. The absorbance of released P-nitroanilide (PNA) was measured at the wave length of 405 nm by means of a microplate reader (MTP-100; CORONA), thereby determining the substrate decomposition. The rate of the substrate decomposition was shown as an average value of 6 repeated reactions. The inhibitory concentration of a test compound relative to the amount of the substrate decomposition in the reaction mixture without a test compound was regarded as an IC₅₀ value. The final concentration of HLE and a synthesized substrate in the reaction mixture were 5.63 nM and 0.2625 mM, respectively.

The target of test [2] is T2, human sputum elastase (HSE) (Homo sapiens, UniProt P08246).
T2 construct: human sputum elastase (HSE); purchased Sigma Inc
T2 sequence (P08246 30-267): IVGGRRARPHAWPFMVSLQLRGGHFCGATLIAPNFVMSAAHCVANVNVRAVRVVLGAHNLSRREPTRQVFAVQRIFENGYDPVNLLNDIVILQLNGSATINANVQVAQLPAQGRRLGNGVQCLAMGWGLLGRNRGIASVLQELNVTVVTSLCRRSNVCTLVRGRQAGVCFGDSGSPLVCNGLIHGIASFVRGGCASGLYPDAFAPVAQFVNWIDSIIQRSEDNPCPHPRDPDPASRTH
Briefly: HSE inhibitory activity (synthetic substrate, pNA release). Format: biochemical. To be noted: pH 7.0; HSE 10 nM, substrate 0.25 mM; read-out: IC₅₀ value HSE. On the procedure:
as §1
as §2, with “The rate of the substrate decomposition was shown as an average value of 6 repeated reactions. The inhibitory concentration of a test compound relative to the amount of the substrate decomposition in the reaction mixture without a test compound was regarded as an IC₅₀ value. The final concentration of HLE and a synthesized substrate in the reaction mixture were 5.63 nM and 0.2625 mM, respectively.” left out

Take `Cc1cccc2nc([C@@H](NC(=O)OCC(c3ccccc3)c3ccccc3)C(C)C)oc(=O)c12` [Compound 1, 2-[1(S)-[(2,2-diphenylethoxy-carbonyl)amino]-2-methylpropyl]-5-methyl-4H-3,1-benzoxazin-4-one]: the IC50 in test [1] was found to be 70 nM; in test [2] it was 280 nM.
